Test results reported in ChEMBL document CHEMBL1201862, “PubChem BioAssay data set” (2004).
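Test compounds were applied to cells in 96-well plates for 48 hours at 5 doses. Here, GI50 denotes the concentration required for 50% inhibition of growth.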 The source made the active and inactive calls. No stated cut-off is given here; in the data, active = GI50 up to about 1.1 µM and inactive = higher.

What was measured:
Test in all cases: NCI tumour cell line growth inhibition, 48 h
SK-MEL-5 = system: SK-MEL-5
SF-539 = system: SF-539
Hs-578T = system: Hs-578T
UACC-62 = system: UACC-62
SR = system: SR
UACC-257 = system: UACC-257
NCI-H522 = system: NCI-H522
SF-268 = system: SF-268
MCF7 = system: MCF7
HT-29 = system: HT-29
MDA-N = system: MDA-N
U-251 = system: U-251
SK-MEL-2 = system: SK-MEL-2
HL-60 = system: HL-60
OVCAR-4 = system: OVCAR-4
PC-3 = system: PC-3
OVCAR-5 = system: OVCAR-5
Malme-3M = system: Malme-3M
KM12 = system: KM12
UO-31 = system: UO-31

| SMILES | GI50 (SK-MEL-5) | GI50 (SF-539) | GI50 (Hs-578T) | GI50 (UACC-62) | GI50 (SR) | GI50 (UACC-257) | GI50 (NCI-H522) | GI50 (SF-268) | GI50 (MCF7) | GI50 (HT-29) | GI50 (MDA-N) | GI50 (U-251) | GI50 (SK-MEL-2) | GI50 (HL-60) | GI50 (OVCAR-4) | GI50 (PC-3) | GI50 (OVCAR-5) | GI50 (Malme-3M) | GI50 (KM12) | GI50 (UO-31) |
| --- | --- | --- | --- | --- | --- | --- | --- | --- | --- | --- | --- | --- | --- | --- | --- | --- | --- | --- | --- | --- |
| COc1cccc2cc(C(=O)Nc3ccccn3)c(=N)oc12 | > 100 µM (inactive) | > 100 µM (inactive) | 55.7 µM (inactive) | 64.4 µM (inactive) | 2.43 µM (inactive) | > 100 µM (inactive) | 46.5 µM (inactive) | 64.1 µM (inactive) | 19.1 µM (inactive) | > 100 µM (inactive) | 82.2 µM (inactive) | > 100 µM (inactive) | 33.6 µM (inactive) | 21.6 µM (inactive) | > 100 µM (inactive) | > 100 µM (inactive) | > 100 µM (inactive) | 50.9 µM (inactive) | 99.3 µM (inactive) | > 100 µM (inactive) |
| Nc1ccc2c3[nH]c4cc(N)ccc4cc-3nc2c1 | 0.237 µM (active) | 0.231 µM (active) | 0.11 µM (active) | 0.194 µM (active) | 0.0535 µM (active) | 0.172 µM (active) | 22.6 µM (inactive) | 0.232 µM (active) | 0.069 µM (active) | 0.145 µM (active) | 0.194 µM (active) | 0.156 µM (active) | 0.413 µM (active) | 0.273 µM (active) | 0.283 µM (active) | 0.224 µM (active) | 0.291 µM (active) | 2.66 µM (inactive) | 0.167 µM (active) | 0.0925 µM (active) |
| O=c1c2cc(Cl)ccc2n2nnc3ccc(NCCNCCO)c1c32 | 1.48 µM (inactive) | 1.8 µM (inactive) | 1.78 µM (inactive) | 2.31 µM (inactive) | 0.641 µM (active) | 1.78 µM (inactive) | 1.33 µM (inactive) | 2.74 µM (inactive) | 2.76 µM (inactive) | 0.575 µM (active) | 1.1 µM (active) | 0.853 µM (active) | 2.09 µM (inactive) | 1.78 µM (inactive) | 1.01 µM (active) | 1.16 µM (inactive) | 1.64 µM (inactive) | 2.09 µM (inactive) | 1.09 µM (active) | 1.17 µM (inactive) |
| Brc1ccc2[nH]cc(-c3csc(-c4c[nH]c5ccc(Br)cc45)n3)c2c1 | 1.64 µM (inactive) | 1.56 µM (inactive) | 3.79 µM (inactive) | 1.85 µM (inactive) | 1.63 µM (inactive) | 2.92 µM (inactive) | 1.66 µM (inactive) | 2.05 µM (inactive) | 2.7 µM (inactive) | 1.7 µM (inactive) | 2.25 µM (inactive) | 1.82 µM (inactive) | 1.9 µM (inactive) | 3.24 µM (inactive) | 2.26 µM (inactive) | 1.97 µM (inactive) | 1.97 µM (inactive) | 1.56 µM (inactive) | 1.47 µM (inactive) | 2.42 µM (inactive) |
| CC1=C(/C=C/C(C)=C/C=C/C(C)=C/C(=O)OC2CC(n3cc(F)c(=O)[nH]c3=O)OC2CO)C(C)(C)CCC1 (stereo not given) | 1.18 µM (inactive) | 0.0577 µM (active) | 6.62 µM (inactive) | 0.184 µM (active) | 0.247 µM (active) | 7.91 µM (inactive) | 1.17 µM (inactive) | 0.252 µM (active) | 0.057 µM (active) | 2.71 µM (inactive) | 6.82 µM (inactive) | 1.2 µM (inactive) | 24.9 µM (inactive) | 0.628 µM (active) | 6.01 µM (inactive) | 1.99 µM (inactive) | 17.3 µM (inactive) | 12.1 µM (inactive) | 12.2 µM (inactive) | 0.431 µM (active) |
| Cc1ccc2c(c1)C(=O)C(C1OC(=O)c3ccccc31)C2 (stereo not given) | 65.3 µM (inactive) | 52 µM (inactive) | 69.5 µM (inactive) | 96.2 µM (inactive) | 74.5 µM (inactive) | > 100 µM (inactive) | 83.4 µM (inactive) | > 100 µM (inactive) | 36.1 µM (inactive) | 29.2 µM (inactive) | > 100 µM (inactive) | 61 µM (inactive) | > 100 µM (inactive) | 64.7 µM (inactive) | > 100 µM (inactive) | 93.5 µM (inactive) | > 100 µM (inactive) | > 100 µM (inactive) | > 100 µM (inactive) | > 100 µM (inactive) |
| O=C(CCCl)NN=C1NCCCCN1 | > 100 µM (inactive) | > 100 µM (inactive) | > 100 µM (inactive) | > 100 µM (inactive) | > 100 µM (inactive) | > 100 µM (inactive) | > 100 µM (inactive) | > 100 µM (inactive) | > 100 µM (inactive) | > 100 µM (inactive) | > 100 µM (inactive) | > 100 µM (inactive) | > 100 µM (inactive) | > 100 µM (inactive) | > 100 µM (inactive) | > 100 µM (inactive) | > 100 µM (inactive) | > 100 µM (inactive) | > 100 µM (inactive) | > 100 µM (inactive) |
| C=CCSC1=N/C(=C\c2ccccc2)C(=O)N1CC=C | 17.8 µM (inactive) | 84.1 µM (inactive) | 43 µM (inactive) | 33.3 µM (inactive) | 22.7 µM (inactive) | 33.2 µM (inactive) | 31.2 µM (inactive) | 6.85 µM (inactive) | 27.8 µM (inactive) | 23.6 µM (inactive) | 30.3 µM (inactive) | 37.7 µM (inactive) | 29.6 µM (inactive) | 5.24 µM (inactive) | 40.6 µM (inactive) | 24.8 µM (inactive) | > 100 µM (inactive) | 47 µM (inactive) | 38.8 µM (inactive) | 40.5 µM (inactive) |
| Brc1ccc2[nH]cc(-c3csc(-c4c[nH]c5ccccc45)n3)c2c1 | 2.24 µM (inactive) | 4.72 µM (inactive) | 4.81 µM (inactive) | 5.5 µM (inactive) | 3.39 µM (inactive) | 5.07 µM (inactive) | 1.81 µM (inactive) | 2.66 µM (inactive) | 2.13 µM (inactive) | 1.8 µM (inactive) | 2.88 µM (inactive) | 2.98 µM (inactive) | 3.17 µM (inactive) | 5.64 µM (inactive) | 5.42 µM (inactive) | 3.54 µM (inactive) | 2.02 µM (inactive) | 3.03 µM (inactive) | 2.3 µM (inactive) | 2.93 µM (inactive) |
| CCOc1ccc(/N=N/S(=O)(=O)O)cc1 | > 100 µM (inactive) | > 100 µM (inactive) | > 100 µM (inactive) | > 100 µM (inactive) | > 100 µM (inactive) | > 100 µM (inactive) | > 100 µM (inactive) | > 100 µM (inactive) | > 100 µM (inactive) | > 100 µM (inactive) | > 100 µM (inactive) | > 100 µM (inactive) | > 100 µM (inactive) | > 100 µM (inactive) | > 100 µM (inactive) | > 100 µM (inactive) | > 100 µM (inactive) | > 100 µM (inactive) | > 100 µM (inactive) | > 100 µM (inactive) |
